Results reported in PMC5218480 (PLoS ONE, 2017).

Test system: MV-4-11 cells
Assay: Gene expression microarray analysis (Affymetrix PrimeView) and GSEA
Assay type: cell-based, human
Set-up: RFU PODN (11730768_x_at) / Fold change /veh PODN (11730768_x_at) / RFU LINC00158 (11744669_a_at) / Fold change /veh LINC00158 (11744669_a_at) / RFU DUSP10 (11751237_a_at) / Fold change /veh DUSP10 (11751237_a_at) / RFU ID3 (11757404_x_at) / Fold change /veh ID3 (11757404_x_at) / RFU PLEKHG5 (11737974_s_at) / Fold change /veh PLEKHG5 (11737974_s_at) / RFU LRRC4B (11730491_at) / Fold change /veh LRRC4B (11730491_at) / RFU GIMAP4 (11747438_a_at) / Fold change /veh GIMAP4 (11747438_a_at) / RFU KRT8 (11758183_x_at) / Fold change /veh KRT8 (11758183_x_at) / RFU CNN1 (11734310_a_at) / Fold change /veh CNN1 (11734310_a_at) / RFU VPS37D (11726825_at) / Fold change /veh VPS37D (11726825_at) / RFU C10orf10 (11716522_x_at) / Fold change /veh C10orf10 (11716522_x_at) / RFU KIR2DL2 /// KIR2DL4 /// KIR2DL5A /// KIR2DL5B /// KIR2DS1 /// KIR2DS2 /// KIR2DS3 /// KIR2DS4 /// KIR3DL3 /// KIR3DL3 /// KIR3DS1 (11738374_at) / Fold change /veh KIR2DL2 /// KIR2DL4 /// KIR2DL5A /// KIR2DL5B /// KIR2DS1 /// KIR2DS2 /// KIR2DS3 /// KIR2DS4 /// KIR3DL3 /// KIR3DL3 /// KIR3DS1 (11738374_at) / RFU C1QL1 (11718748_at) / Fold change /veh C1QL1 (11718748_at) / RFU TMPRSS4 (11747572_a_at) / Fold change /veh TMPRSS4 (11747572_a_at) / RFU HAMP (11756126_x_at) / Fold change /veh HAMP (11756126_x_at) / RFU RNFT2 (11725882_a_at) / Fold change /veh RNFT2 (11725882_a_at) / RFU NR4A2 (11747474_a_at) / Fold change /veh NR4A2 (11747474_a_at) / RFU ABCC12 (11746883_a_at) / Fold change /veh ABCC12 (11746883_a_at) / RFU TMEM136 (11760407_x_at) / Fold change /veh TMEM136 (11760407_x_at) / RFU CLDN22 /// WWC2 (11732394_at) / Fold change /veh CLDN22 /// WWC2 (11732394_at) / RFU HLA-DPB1 (11760878_x_at) / Fold change /veh HLA-DPB1 (11760878_x_at) / RFU SPINT1 (11716480_a_at) / Fold change /veh SPINT1 (11716480_a_at) / RFU GAP43 (11754022_s_at) / Fold change /veh GAP43 (11754022_s_at) / RFU A4GNT (11735810_at) / Fold change /veh A4GNT (11735810_at) / RFU PRB3 (11715151_x_at) / Fold change /veh PRB3 (11715151_x_at) / RFU TUBB4B (11761932_at) / Fold change /veh TUBB4B (11761932_at) / RFU CAPN14 (11732068_a_at) / Fold change /veh CAPN14 (11732068_a_at) / RFU TMCC2 (11721928_a_at) / Fold change /veh TMCC2 (11721928_a_at) / RFU IRGQ (11745062_a_at) / Fold change /veh IRGQ (11745062_a_at) / RFU FAM174B (11720279_a_at) / Fold change /veh FAM174B (11720279_a_at) / RFU TMPRSS4 (11748680_a_at) / Fold change /veh TMPRSS4 (11748680_a_at) / RFU FAM212B (11763350_a_at) / Fold change /veh FAM212B (11763350_a_at) / RFU PLEKHG5 (11743358_a_at) / Fold change /veh PLEKHG5 (11743358_a_at) / RFU ZSCAN30 (11745921_a_at) / Fold change /veh ZSCAN30 (11745921_a_at) / RFU CMKLR1 (11741424_a_at) / Fold change /veh CMKLR1 (11741424_a_at) / RFU LOC101060620 /// MAPK8IP1 (11723275_at) / Fold change /veh LOC101060620 /// MAPK8IP1 (11723275_at) / RFU SPTSSB (11747773_x_at) / Fold change /veh SPTSSB (11747773_x_at) / RFU PRSS12 (11739890_at) / Fold change /veh PRSS12 (11739890_at) / RFU BIN1 (11741810_x_at) / Fold change /veh BIN1 (11741810_x_at) / RFU WNT11 (11732464_a_at) / Fold change /veh WNT11 (11732464_a_at) / RFU C10orf10 (11716521_a_at) / Fold change /veh C10orf10 (11716521_a_at) / RFU C5orf56 (11738089_at) / Fold change /veh C5orf56 (11738089_at) / RFU CYB561 (11721691_x_at) / Fold change /veh CYB561 (11721691_x_at) / RFU ANKRD19P (11752326_a_at) / Fold change /veh ANKRD19P (11752326_a_at) / RFU OR2T12 /// OR2T33 /// OR2T8 (11738714_s_at) / Fold change /veh OR2T12 /// OR2T33 /// OR2T8 (11738714_s_at) / RFU VCAN (11748164_a_at) / Fold change /veh VCAN (11748164_a_at) / RFU JSRP1 (11732532_at) / Fold change /veh JSRP1 (11732532_at) / RFU KRTAP10-11 (11738290_x_at) / Fold change /veh KRTAP10-11 (11738290_x_at) / RFU MYO3A (11730013_a_at) / Fold change /veh MYO3A (11730013_a_at) / RFU EBF3 (11725865_a_at) / Fold change /veh EBF3 (11725865_a_at) / RFU CAMK2N1 (11719241_x_at) / Fold change /veh CAMK2N1 (11719241_x_at) / RFU C5orf56 (11738088_a_at) / Fold change /veh C5orf56 (11738088_a_at) / RFU OLFML3 (11715873_a_at) / Fold change /veh OLFML3 (11715873_a_at) / RFU LOC100653217 /// NTM (11731650_a_at) / Fold change /veh LOC100653217 /// NTM (11731650_a_at) / RFU MAPK11 (11762145_a_at) / Fold change /veh MAPK11 (11762145_a_at) / RFU FIZ1 (11724087_x_at) / Fold change /veh FIZ1 (11724087_x_at) / RFU OASL (11726364_x_at) / Fold change /veh OASL (11726364_x_at) / RFU SOX15 (11748057_x_at) / Fold change /veh SOX15 (11748057_x_at) / RFU CD79A (11719716_a_at) / Fold change /veh CD79A (11719716_a_at) / RFU HIST1H1D (11736915_at) / Fold change /veh HIST1H1D (11736915_at) / RFU CASKIN2 (11723855_a_at) / Fold change /veh CASKIN2 (11723855_a_at) / RFU LOC730098 (11760151_x_at) / Fold change /veh LOC730098 (11760151_x_at) / RFU OR4N2 (11742367_at) / Fold change /veh OR4N2 (11742367_at) / RFU PRRT2 (11749266_a_at) / Fold change /veh PRRT2 (11749266_a_at) / RFU SNX32 (11753110_a_at) / Fold change /veh SNX32 (11753110_a_at) / RFU CDHR5 (11726645_a_at) / Fold change /veh CDHR5 (11726645_a_at) / RFU RCAN1 (11760418_a_at) / Fold change /veh RCAN1 (11760418_a_at) / RFU FAM167A (11723789_a_at) / Fold change /veh FAM167A (11723789_a_at) / RFU FAM26E (11764081_at) / Fold change /veh FAM26E (11764081_at) / RFU ISYNA1 (11749810_s_at) / Fold change /veh ISYNA1 (11749810_s_at) / RFU ACY1 (11761880_at) / Fold change /veh ACY1 (11761880_at) / RFU 11764098_at / Fold change /veh 11764098_at / RFU SAMD14 (11745864_x_at) / Fold change /veh SAMD14 (11745864_x_at) / RFU NPB (11741838_a_at) / Fold change /veh NPB (11741838_a_at) / RFU TMPRSS6 (11731388_a_at) / Fold change /veh TMPRSS6 (11731388_a_at) / RFU KRTAP10-2 (11738614_at) / Fold change /veh KRTAP10-2 (11738614_at) / RFU ARHGAP8 /// PRR5-ARHGAP8 (11727945_x_at) / Fold change /veh ARHGAP8 /// PRR5-ARHGAP8 (11727945_x_at) / RFU KRTAP5-7 /// NADSYN1 (11734609_at) / Fold change /veh KRTAP5-7 /// NADSYN1 (11734609_at) / RFU RASL12 (11751679_a_at) / Fold change /veh RASL12 (11751679_a_at) / RFU CDKN2B (11736163_a_at) / Fold change /veh CDKN2B (11736163_a_at) / RFU PRF1 (11729649_at) / Fold change /veh PRF1 (11729649_at) / RFU, ZNF638 /// ZNF638-IT1 / Fold change vs veh, ZNF638 /// ZNF638-IT1 / RFU, PANK3 / Fold change vs veh, PANK3 / RFU, SH3YL1 / Fold change vs veh, SH3YL1 / RFU, ZEB2 / Fold change vs veh, ZEB2 / RFU, NRIP1 / Fold change vs veh, NRIP1 / RFU, PTTG1IP / Fold change vs veh, PTTG1IP / RFU, CAPN2 / Fold change vs veh, CAPN2 / RFU, MED14 / Fold change vs veh, MED14 / RFU, SNORA58 / Fold change vs veh, SNORA58 / RFU, C1orf63 / Fold change vs veh, C1orf63 / RFU, LRRFIP1 / Fold change vs veh, LRRFIP1 / RFU, NDUFAF7 / Fold change vs veh, NDUFAF7 / RFU, SLC12A2 / Fold change vs veh, SLC12A2 / RFU, IBTK / Fold change vs veh, IBTK / RFU, ESF1 / Fold change vs veh, ESF1 / Fold change vs veh, TMEM50B / RFU, TAOK1 / Fold change vs veh, TAOK1 / RFU, ACBD3 / Fold change vs veh, ACBD3 / RFU, TMA16 / Fold change vs veh, TMA16 / RFU, RWDD3 / Fold change vs veh, RWDD3 / RFU, BCAT1 / Fold change vs veh, BCAT1 / RFU, EDEM3 / Fold change vs veh, EDEM3 / RFU, TMEM33 / Fold change vs veh, TMEM33 / RFU, WDR75 / Fold change vs veh, WDR75 / RFU, AHCTF1 / Fold change vs veh, AHCTF1 / RFU, TFRC / Fold change vs veh, TFRC / RFU, ZDHHC17 / Fold change vs veh, ZDHHC17 / RFU, NOM1 / Fold change vs veh, NOM1 / RFU, ARL8B / Fold change vs veh, ARL8B / RFU, ZBTB11 / Fold change vs veh, ZBTB11 / RFU, TAMM41 / Fold change vs veh, TAMM41 / RFU, KIAA1704 /// LOC100996395 / Fold change vs veh, KIAA1704 /// LOC100996395 / RFU, ING1 / Fold change vs veh, ING1 / RFU, TRMT61B / Fold change vs veh, TRMT61B / RFU, FUBP3 / Fold change vs veh, FUBP3 / RFU, TP53 / Fold change vs veh, TP53 / RFU, TNKS2 / Fold change vs veh, TNKS2 / RFU, ZFP14 / Fold change vs veh, ZFP14 / RFU, ACTR2 / Fold change vs veh, ACTR2 / RFU, PPP3R1 / Fold change vs veh, PPP3R1 / RFU, PIK3R1 / Fold change vs veh, PIK3R1 / RFU, HNRNPA1 / Fold change vs veh, HNRNPA1 / RFU, RNF170 / Fold change vs veh, RNF170 / RFU, ZNF28 / Fold change vs veh, ZNF28 / RFU, RNGTT / Fold change vs veh, RNGTT / RFU, OGT / Fold change vs veh, OGT / RFU, BRD1 / Fold change vs veh, BRD1 / RFU, MARS / Fold change vs veh, MARS / RFU, ZNF655 / Fold change vs veh, ZNF655 / RFU, FAHD1 / Fold change vs veh, FAHD1 / RFU, BDP1 / Fold change vs veh, BDP1 / RFU, LRRCC1 / Fold change vs veh, LRRCC1 / RFU, ARID1A / Fold change vs veh, ARID1A / RFU, ZNF146 / Fold change vs veh, ZNF146 / RFU, ZNF330 / Fold change vs veh, ZNF330 / RFU, GPN3 / Fold change vs veh, GPN3 / RFU, C9orf123 / Fold change vs veh, C9orf123 / RFU, N4BP2L2 / Fold change vs veh, N4BP2L2 / RFU, ARFIP1 / Fold change vs veh, ARFIP1 / RFU, FAM179B / Fold change vs veh, FAM179B / RFU, BCL10 / Fold change vs veh, BCL10 / RFU, UHRF1BP1L / Fold change vs veh, UHRF1BP1L / RFU, BET1 / Fold change vs veh, BET1 / RFU, CNOT2 / Fold change vs veh, CNOT2 / RFU, ZNF268 / Fold change vs veh, ZNF268 / Fold change vs veh, ZNF507 / RFU, DGCR2 / Fold change vs veh, DGCR2 / RFU, WDSUB1 / Fold change vs veh, WDSUB1 / Fold change vs veh, HSP90B1 /// MIR3652 / RFU, ADSS / Fold change vs veh, ADSS / RFU, GK / Fold change vs veh, GK / RFU, ZNF148 / Fold change vs veh, ZNF148 / RFU, TAF9 / Fold change vs veh, TAF9 / RFU, SLC1A5 / Fold change vs veh, SLC1A5 / RFU, SLMO2 / Fold change vs veh, SLMO2 / RFU, ABCC4 / Fold change vs veh, ABCC4 / RFU, LOC101060439 /// RAP1B / Fold change vs veh, LOC101060439 /// RAP1B / RFU, RFX7 / Fold change vs veh, RFX7 / RFU, GTPBP10 / Fold change vs veh, GTPBP10 / RFU, CNEP1R1 / Fold change vs veh, CNEP1R1 / RFU, BIVM-ERCC5 /// ERCC5 / Fold change vs veh, BIVM-ERCC5 /// ERCC5 / RFU, ILF3 / Fold change vs veh, ILF3 / RFU 11762660_at / Fold change /veh 11762660_at / RFU VCAN (11757783_s_at) / Fold change /veh VCAN (11757783_s_at) / RFU DDX43 (11728927_at) / Fold change /veh DDX43 (11728927_at) / RFU KRT8 (11758188_x_at) / Fold change /veh KRT8 (11758188_x_at) / RFU NKD1 (11759106_at) / Fold change /veh NKD1 (11759106_at) / RFU SRD5A1 (11742802_a_at) / Fold change /veh SRD5A1 (11742802_a_at) / RFU TPSAB1 /// TPSB2 (11721975_s_at) / Fold change /veh TPSAB1 /// TPSB2 (11721975_s_at) / RFU GSTM3 (11746129_a_at) / Fold change /veh GSTM3 (11746129_a_at) / RFU IL23R (11737362_x_at) / Fold change /veh IL23R (11737362_x_at) / RFU TMEM51 (11727254_a_at) / Fold change /veh TMEM51 (11727254_a_at) / RFU PIWIL2 (11732686_x_at) / Fold change /veh PIWIL2 (11732686_x_at) / RFU ORM1 (11744905_x_at) / Fold change /veh ORM1 (11744905_x_at) / RFU CCDC152 (11743942_at) / Fold change /veh CCDC152 (11743942_at) / RFU ECM1 (11717891_a_at) / Fold change /veh ECM1 (11717891_a_at) / RFU IL23R (11748794_a_at) / Fold change /veh IL23R (11748794_a_at) / RFU TNFAIP8L3 (11732012_x_at) / Fold change /veh TNFAIP8L3 (11732012_x_at) / RFU MBOAT4 (11741988_at) / Fold change /veh MBOAT4 (11741988_at) / RFU 11764193_at / Fold change /veh 11764193_at / RFU TMEM53 (11763286_at) / Fold change /veh TMEM53 (11763286_at) / RFU MAGEB2 (11727129_at) / Fold change /veh MAGEB2 (11727129_at) / RFU TMEM200A (11744735_a_at) / Fold change /veh TMEM200A (11744735_a_at) / RFU CCDC152 (11751479_a_at) / Fold change /veh CCDC152 (11751479_a_at) / RFU FAM211A (11726209_a_at) / Fold change /veh FAM211A (11726209_a_at) / RFU RGS16 (11746705_a_at) / Fold change /veh RGS16 (11746705_a_at) / RFU VCAN (11755009_s_at) / Fold change /veh VCAN (11755009_s_at) / RFU RHOB (11743442_s_at) / Fold change /veh RHOB (11743442_s_at) / RFU RGS16 (11720943_a_at) / Fold change /veh RGS16 (11720943_a_at) / RFU RGS16 (11720944_at) / Fold change /veh RGS16 (11720944_at) / RFU, VPS4B / Fold change vs veh, VPS4B / RFU, CREB1 / Fold change vs veh, CREB1 / RFU, DNAJC13 / Fold change vs veh, DNAJC13 / RFU, GNAQ / Fold change vs veh, GNAQ / RFU, CDK5R1 / Fold change vs veh, CDK5R1 / RFU, ZRANB3 / Fold change vs veh, ZRANB3 / RFU, CUL4A / Fold change vs veh, CUL4A / RFU, CCNY / Fold change vs veh, CCNY / RFU, UFL1 / Fold change vs veh, UFL1 / RFU, COG3 / Fold change vs veh, COG3 / RFU, DIAPH2 / Fold change vs veh, DIAPH2 / RFU, SKA2 / Fold change vs veh, SKA2 / RFU, AFF3 / Fold change vs veh, AFF3 / RFU, LMF1 / Fold change vs veh, LMF1 / RFU, IPO11 / Fold change vs veh, IPO11 / RFU, DFFB / Fold change vs veh, DFFB / RFU, FOXP1 / Fold change vs veh, FOXP1 / RFU, CARD8 / Fold change vs veh, CARD8 / RFU, STRN3 / Fold change vs veh, STRN3 / RFU, ADK / Fold change vs veh, ADK / RFU, RASSF2 / Fold change vs veh, RASSF2 / RFU, WIPF1 / Fold change vs veh, WIPF1 / RFU, LARP1B / Fold change vs veh, LARP1B / RFU, RASA1 / Fold change vs veh, RASA1 / RFU, RB1 / Fold change vs veh, RB1 / RFU, PPFIA1 / Fold change vs veh, PPFIA1 / RFU, MAT2A / Fold change vs veh, MAT2A / RFU, CCT5 / Fold change vs veh, CCT5 / RFU, WDR92 / Fold change vs veh, WDR92 / RFU, CUX1 / Fold change vs veh, CUX1 / RFU, TTC7A / Fold change vs veh, TTC7A / RFU, TMEM135 / Fold change vs veh, TMEM135 / RFU, DEPTOR / Fold change vs veh, DEPTOR / RFU, CPM / Fold change vs veh, CPM / RFU, DNAJB6 / Fold change vs veh, DNAJB6 / RFU, CACNA2D3 / Fold change vs veh, CACNA2D3 / RFU, DTX4 / Fold change vs veh, DTX4 / RFU, TFCP2 / Fold change vs veh, TFCP2 / RFU, GMCL1 /// GMCL1P1 / Fold change vs veh, GMCL1 /// GMCL1P1 / RFU, AEBP2 / Fold change vs veh, AEBP2 / RFU, SNHG1 /// SNORD22 /// SNORD25 /// SNORD26 /// SNORD27 /// SNORD28 /// SNORD29 /// SNORD31 / Fold change vs veh, SNHG1 /// SNORD22 /// SNORD25 /// SNORD26 /// SNORD27 /// SNORD28 /// SNORD29 /// SNORD31 / Fold change (Aza/veh), C12orf56 (ProbeSet 11735607_a_at) / Fold change (ACY-1035/veh), C12orf56 (ProbeSet 11735607_a_at) / Fold change (Aza/veh), FGFR1OP (ProbeSet 11751329_s_at) / Fold change (ACY-1035/veh), FGFR1OP (ProbeSet 11751329_s_at) / Fold change (Aza/veh), VPS36 (ProbeSet 11739960_a_at) / Fold change (ACY-1035/veh), VPS36 (ProbeSet 11739960_a_at) / RFU SYPL1 (11715823_x_at) / Fold change /veh SYPL1 (11715823_x_at) / RFU IGFBP7 (11715501_s_at) / Fold change /veh IGFBP7 (11715501_s_at) / RFU REEP3 (11722064_at) / Fold change /veh REEP3 (11722064_at) / RFU IGLL1 (11728026_x_at) / Fold change /veh IGLL1 (11728026_x_at): dose or concentration left out as unconfirmed
Settings: ProbeSet 11755070_a_at; LIST D

Compound: Nc1ncn([C@@H]2O[C@H](CO)[C@@H](O)[C@H]2O)c(=O)n1 [azacitidine]
- Fold change vs veh, CARD8: 0.80
